The record followed here is patent US7771761B2, “Cheese with calcium lactate crystal inhibitor” (Regents of The University of Minnesota, priority 2005, dated 2010).

Structures can show the parent of a compound that is named as a salt. Where two headings read alike, the source gives them in different places.

Data set [1] is described as follows: Solubility model Example 3: filtrate analysis of calcium lactate solutions with sodium gluconate. The format is physicochemical. Conditions: 48 hours at about 40° F., cold filtered. An excerpt: A test was run to determine the ability of ionic gluconate provided by sodium gluconate in an aqueous solution to bind with lactate over time, to thereby model the believed primary phenomenon resulting in reduced formation of calcium lactate crystal. In each sample of the model, 14.1 g of calcium lactate pentahydrate (CH3CHOHCOO)2 Ca.5H2O) was used to provide 10 g of calcium lactate (1.83 g calcium ion, 8.17 g lactate ion). Different amounts of sodium gluconate (NaC6H11O7), amounts shown in Table I below) were combined with the calcium lactate pentahydrate and diluted to 100 ml with water. The samples were prepared at room temperature and each mixed well. The samples were then refrigerated at about 40° F. for 48 hours, with each sample being mixed several times during the 48 hour holding period. After the holding period, the samples were cold filtered (40° F.) and the filtrate analyzed for lactate, gluconate and calcium concentrations.

Data set [2] in a line: Solubility model Example 4: visual inspection for crystals on sand paper in calcium lactate solution. The format is physicochemical. Conditions: 1.5% additive in 5.31 g calcium lactate/100 g solution, pH 6.6, 14 days at 7° C. How it is done:
(§1) Demineralized water (60° C.) was then added to the flask to obtain a final weight of 100 g and the flask was stirred to dissolve the calcium lactate powder. Subsequently a piece of 1.5×3 cm sand paper was added to the flask to provide a nucleation site for calcium lactate crystal formation and the flask was sealed with a rubber stopper.
(§2) After preparation a sample of each solution was collected.
(§3) Subsequently all solutions were stored at 7° C. for 14 days. After 14 days the flasks were visually inspected for the presence of crystals on the sand paper and the solutions were filtered at 7° C. through filter paper (Whatman 4; Whatman International Ltd., Maidstone, England).

A short description of data set [3]: Solubility model Example 4: calcium analysis by Atomic Absorption Spectroscopy. To be noted: for Calcium analysis After Storage: 1.5% additive, 14 days at 7° C., filtered supernatant. The protocol:
as §1, §2, §3
(§4) The supernatant and the sample collected prior to storage were analyzed for lactic acid using High Performance Liquid Chromatography (HPLC) and for calcium content by Atomic Absorption Spectroscopy (AAS), providing the results reported below in Tables II and III.

Data set [4] can be described thus: Solubility model Example 4: lactate analysis by HPLC. Conditions: for Lactate analysis After Storage: 1.5% additive, 14 days at 7° C., filtered supernatant. The protocol:
as §1, §2, §3, §4

With `O=C([O-])[C@H](O)[C@@H](O)[C@H](O)[C@H](O)CO.[Na+]` [Sodium gluconate, sodium gluconate], the “FILTRATE RESULTS C6H11O7(%)” value in data set [1] (5 g NaC6H11O7 added to 14.1 g calcium lactate pentahydrate in 100 ml) is given as 2.97%; in data set [1] (10 g NaC6H11O7 added to 14.1 g calcium lactate pentahydrate in 100 ml) it was 7.55%; in data set [1] (15 g NaC6H11O7 added to 14.1 g calcium lactate pentahydrate in 100 ml), 11.15%; in data set [1] (20 g NaC6H11O7 added to 14.1 g calcium lactate pentahydrate in 100 ml) it was 14.21%; in data set [1] (25 g NaC6H11O7 added to 14.1 g calcium lactate pentahydrate in 100 ml) it was 16.61%. For the same molecule, the “presence of crystals on the sand paper (visual inspection)” value (“presence of crystals on the sand paper” for short) in data set [2] is listed as “no crystals were visually observed”. Besides, the “Calcium analysis After Storage” value in data set [3] is reported as 1.08%. The “Lactate analysis After Storage” value in data set [4] is listed as 4.41%.
For the molecule `O=C(O)[C@H](O)[C@@H](O)[C@H](O[C@@H]1O[C@H](CO)[C@H](O)[C@H](O)[C@H]1O)[C@H](O)CO` [Sodium lactobionate, lactobionic acid], the “presence of crystals on the sand paper” value in data set [2] was “no crystals were visually observed”. Further, in data set [3], the “Calcium analysis Initial Concentration” value was determined as 1.05% and the “Calcium analysis After Storage” value turned out to be 1.04%. In addition, in data set [4], the “Lactate analysis Initial Concentration” value was determined as 4.33% and the “Lactate analysis After Storage” value worked out at 4.33%.
For the molecule `O=C(O)CC(O)C(=O)O` (stereo not drawn) [Sodium malate, malic acid disodium salt], the “presence of crystals on the sand paper” value in data set [2] is “no crystals were visually observed”. In addition, the “Calcium analysis Initial Concentration” value in data set [3] (0 days, 1.5 %, pH 6.6) is given as 1.07%. Further, the “Calcium analysis After Storage” value in data set [3] is recorded as 1.06%. In addition, the “Lactate analysis Initial Concentration” value in data set [4] (0 days, 1.5 %, pH 6.6) came out at 4.43%. In addition, the “Lactate analysis After Storage” value in data set [4] was 4.47%.
